Laboratory results taken from US10173991B2, “Sulfone amide linked benzothiazole inhibitors of endothelial lipase” (BRISTOL-MYERS SQUIBB COMPANY, priority 2014, dated 2019).

The compounds below were run against Endothelial lipase (EL) (Homo sapiens (Human), UniProt Q9Y5X9) (assay: Endothelial lipase (EL) enzymatic assay with fluorescent substrate A10070 in DMPG vesicles). Settings: not given.
Type: biochemical
In short: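 Substrate A10070 sits in sonicated DMPG vesicles at 0.11 mole fraction. Lipase and compound preincubated 30 min, 37° C, in HEPES pH 8.0 buffer with CaCl2.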

Chain of Endothelial lipase (EL) (Q9Y5X9 21-500): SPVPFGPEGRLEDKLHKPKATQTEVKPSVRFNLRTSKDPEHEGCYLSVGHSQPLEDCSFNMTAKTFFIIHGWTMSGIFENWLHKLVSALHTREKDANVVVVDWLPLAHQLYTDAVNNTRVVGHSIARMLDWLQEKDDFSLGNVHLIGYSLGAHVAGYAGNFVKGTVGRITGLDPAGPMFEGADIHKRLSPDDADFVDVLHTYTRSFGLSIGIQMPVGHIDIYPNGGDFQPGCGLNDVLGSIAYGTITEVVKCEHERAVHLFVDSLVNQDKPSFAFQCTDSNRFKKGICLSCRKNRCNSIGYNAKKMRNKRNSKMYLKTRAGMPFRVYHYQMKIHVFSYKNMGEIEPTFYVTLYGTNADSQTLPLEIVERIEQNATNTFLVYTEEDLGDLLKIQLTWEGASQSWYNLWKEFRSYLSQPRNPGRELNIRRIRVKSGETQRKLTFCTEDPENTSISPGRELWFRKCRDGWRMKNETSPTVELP

SMILES	IC50 [nM]
COCCS(=O)(=O)C(C(=O)NCC(=O)NC1CC1)c1nc2cc(F)c(-c3ccc(-n4ccnc4)cc3)cc2s1 (stereo not drawn) [Example 581, N-[(cyclopropyl-carbamoyl)methyl]-2-{5-fluoro-6-[4-(1H-imidazol-1-yl)phenyl]-1,3-benzothiazol-2-yl}-2-(2-methoxyethane-sulfonyl)acetamide]	36
CS(=O)(=O)C(C(=O)NCC(=O)NC1CC1)c1nc2ccc(-c3ccc(=O)n(-c4ccccc4)c3)cc2s1 (stereo not drawn) [Example 583, N-[(cyclopropyl-carbamoyl)methyl]-2-methanesulfonyl-2-[6-(6-oxo-1-phenyl-1,6-dihydropyridin-3-yl)-1,3-benzothiazol-2-yl]acetamide]	20
O=C(CNC(=O)C(c1nc2cc(F)c(-c3cnc(-n4cccn4)nc3)cc2s1)S(=O)(=O)CCC(F)(F)F)NC1CC1 (stereo not drawn) [Example 584, N-[(cyclopropyl-carbamoyl)methyl]-2-{5-fluoro-6-[2-(1H-pyrazol-1-yl)pyrimidin-5-yl]-1,3-benzothiazol-2-yl}-2-(3,3,3-trifluoropropane-sulfonyl)acetamide]	64
O=C(CNC(=O)C(c1nc2cc(F)c(-c3ccc4c(c3)CCCN4C(=O)Cc3c(F)cccc3F)cc2s1)S(=O)(=O)CCC(F)(F)F)NC1CC1 (stereo not drawn) [Example 590, N-[(cyclopropyl-carbamoyl)methyl]-2-(6-{1-[2-(2,6-difluorophenyl)acetyl]-1,2,3,4-tetrahydroquinolin-6-yl}-5-fluoro-1,3-benzothiazol-2-yl)-2-(3,3,3-trifluoropropane-sulfonyl)acetamide]	8
COCCS(=O)(=O)C(C(=O)NCC(=O)NC1CC1)c1nc2cc(F)c(-c3ccc(-c4nnn(C)n4)cc3)cc2s1 (stereo not drawn) [Example 593, N-[(cyclopropyl-carbamoyl)methyl]-2-{5-fluoro-6-[4-(2-methyl-2H-1,2,3,4-tetrazol-5-yl)phenyl]-1,3-benzothiazol-2-yl}-2-(2-methoxyethane-sulfonyl)acetamide]	9
COCCS(=O)(=O)C(C(=O)NCC(=O)NC1CC1)c1nc2cc(F)c(-c3ccc(-c4nnnn4C)cc3)cc2s1 (stereo not drawn) [Example 594, N-[(cyclopropyl-carbamoyl)methyl]-2-{5-fluoro-6-[4-(1-methyl-1H-1,2,3,4-tetrazol-5-yl)phenyl]-1,3-benzothiazol-2-yl}-2-(2-methoxyethane-sulfonyl)acetamide]	67
O=C(CNC(=O)C(c1nc2ccc(-c3ccc4c(c3)CN(C3CC3)C4=O)cc2s1)S(=O)(=O)c1ccc(F)cc1)NC1CC1 (stereo not drawn) [Example 597, 2-[6-(2-cyclopropyl-1-oxo-2,3-dihydro-1H-isoindol-5-yl)-1,3-benzothiazol-2-yl]-N-[(cyclopropyl-carbamoyl)methyl]-2-(4-fluorobenzene-sulfonyl)acetamide]	7
O=C(CNC(=O)C(c1nc2ccc(-c3ccnc(O)c3)cc2s1)S(=O)(=O)c1ccc(F)cc1)NC1CC1 (stereo not drawn) [Example 599, N-[(cyclopropyl-carbamoyl)methyl]-2-(4-fluorobenzene-sulfonyl)-2-[6-(2-hydroxypyridin-4-yl)-1,3-benzothiazol-2-yl]acetamide]	27
COCCS(=O)(=O)C(C(=O)NCC(=O)NC1CC1)c1nc2ccc(-c3ccnc(O)c3)cc2s1 (stereo not drawn) [Example 600, N-[(cyclopropyl-carbamoyl)methyl]-2-[6-(2-hydroxypyridin-4-yl)-1,3-benzothiazol-2-yl]-2-(2-methoxyethane-sulfonyl)acetamide]	14
CS(=O)(=O)C(C(=O)NCC(=O)NC1CC1)c1nc2cc(OC(F)F)c(-c3ccc(F)nc3)cc2s1 (stereo not drawn) [Example 602, N-[(cyclopropyl-carbamoyl)methyl]-2-[5-(difluoromethoxy)-6-(6-fluoropyridin-3-yl)-1,3-benzothiazol-2-yl]-2-methanesulfonyl-acetamide]	18
Cc1cc(-c2cc3sc(C(C(=O)NCC(=O)NC4CC4)S(C)(=O)=O)nc3cc2OC(F)F)cnn1 (stereo not drawn) [Example 604, N-[(cyclopropyl-carbamoyl)methyl]-2-[5-(difluoromethoxy)-6-(6-methylpyridazin-4-yl)-1,3-benzothiazol-2-yl]-2-methanesulfonyl-acetamide]	27
CS(=O)(=O)C(C(=O)NCC(=O)NC1CC1)c1nc2ccc(-c3ccccc3)cc2s1 (stereo not drawn) [Example 608, N-[(cyclopropyl-carbamoyl)methyl]-2-methanesulfonyl-2-(6-phenyl-1,3-benzothiazol-2-yl)acetamide]	152
CS(=O)(=O)C(C(=O)NCC(=O)NC1CC1)c1nc2cc(-c3ccccc3)ccc2s1 (stereo not drawn) [Example 610, N-[(cyclopropyl-carbamoyl)methyl]-2-methanesulfonyl-2-(5-phenyl-1,3-benzothiazol-2-yl)acetamide]	40

Next, values leading:

IC50 [nM]	SMILES
1	COCCS(=O)(=O)C(C(=O)NCC(=O)NC1CC1)c1nc2cc(F)c(-c3ccc(-n4ncc(C#N)c4N)cc3)cc2s1 (stereo not drawn) [Example 585, 2-{6-[4-(5-amino-4-cyano-1H-pyrazol-1-yl)phenyl]-5-fluoro-1,3-benzothiazol-2-yl}-N-[(cyclopropyl-carbamoyl)methyl]-2-(2-methoxyethane-sulfonyl)acetamide]
1	COCCS(=O)(=O)C(C(=O)NCC(=O)NC1CC1)c1nc2cc(F)c(-c3ccc(-n4ncc(C(N)=O)c4N)cc3)cc2s1 (stereo not drawn) [Example 586, 5-amino-1-{4-[2-({[(cyclopropyl-carbamoyl)methyl]carbamoyl}(2-methoxyethane-sulfonyl)methyl)-5-fluoro-1,3-benzothiazol-6-yl]phenyl}-1H-pyrazole-4-carboxamide]
3	Cc1nn(-c2ccc(-c3cc4sc(C(C(=O)NCC(=O)NC5CC5)S(=O)(=O)CCC(F)(F)F)nc4cc3F)cc2)c(N)c1C#N (stereo not drawn) [Example 587, 2-{6-[4-(5-amino-4-cyano-3-methyl-1H-pyrazol-1-yl)phenyl]-5-fluoro-1,3-benzothiazol-2-yl}-N-[(cyclopropyl-carbamoyl)methyl]-2-(3,3,3-trifluoropropane-sulfonyl)acetamide]
6	O=C(CNC(=O)C(c1nc2cc(F)c(-c3ccc(-n4nc(C(F)(F)F)cc4C(=O)O)cc3)cc2s1)S(=O)(=O)CCC(F)(F)F)NC1CC1 (stereo not drawn) [Example 588, 1-{4-[2-({[(cyclopropyl-carbamoyl)methyl]carbamoyl}(3,3,3-trifluoropropane-sulfonyl)methyl)-5-fluoro-1,3-benzothiazol-6-yl]phenyl}-3-(trifluoromethyl)-1H-pyrazole-5-carboxylic acid]
5	O=C(CNC(=O)C(c1nc2cc(F)c(-c3ccc(=O)n(Cc4ccccc4)c3)cc2s1)S(=O)(=O)CCC(F)(F)F)NC1CC1 (stereo not drawn) [Example 592, 2-[6-(1-benzyl-6-oxo-1,6-dihydropyridin-3-yl)-5-fluoro-1,3-benzothiazol-2-yl]-N-[(cyclopropyl-carbamoyl)methyl]-2-(3,3,3-trifluoropropane-sulfonyl)acetamide]
3	CS(=O)(=O)C(C(=O)NCC(=O)NC1CC1)c1nc2cc(OC(F)F)c(-c3cccc(-n4cccn4)c3)cc2s1 (stereo not drawn) [Example 605, N-[(cyclopropyl-carbamoyl)methyl]-2-[5-(difluoromethoxy)-6-[3-(1H-pyrazol-1-yl)phenyl]-1,3-benzothiazol-2-yl]-2-methanesulfonyl-acetamide]
4	CC(C)n1cc(-c2cc3sc(C(C(=O)NCC(=O)NC4CC4)S(C)(=O)=O)nc3cc2OC(F)F)ccc1=O (stereo not drawn) [Example 606]
5	COC(=O)Nc1ccc(-c2cc3sc(C(C(=O)NCC(=O)NC4CC4)S(C)(=O)=O)nc3cc2OC(F)F)cc1 (stereo not drawn) [Example 607, methyl N-{4-[2-({[(cyclopropyl-carbamoyl)methyl]carbamoyl} (methanesulfonyl)methyl)-5-(difluoromethoxy)-1,3-benzothiazol-6-yl]phenyl} carbamate]
2	CS(=O)(=O)C(C(=O)NCC(=O)NC1CC1)c1nc2cc(F)c(-c3ccccc3)cc2s1 (stereo not drawn) [Example 609, N-[(cyclopropyl-carbamoyl)methyl]-2-(5-fluoro-6-phenyl-1,3-benzothiazol-2-yl)-2-methanesulfonyl-acetamide]
3	COCCS(=O)(=O)C(C(=O)NCC(=O)NC1CC1)c1nc2cc(-c3ccccc3)c(F)cc2s1 (stereo not drawn) [Example 612, N-[(cyclopropyl-carbamoyl)methyl]-2-(6-fluoro-5-phenyl-1,3-benzothiazol-2-yl)-2-(2-methoxyethane-sulfonyl)acetamide]

Same assay, conditions: EL from conditioned media of HT-1080 cells; 30 min preincubation at 37° C.

IC50 [nM]	SMILES
268	O=C(CNC(=O)C(c1nc2cc(F)c(-c3cccn(Cc4ccccc4)c3=O)cc2s1)S(=O)(=O)CCC(F)(F)F)NC1CC1 (stereo not drawn) [Example 591, 2-[6-(1-Benzyl-2-oxo-1,2-dihydropyridin-3-yl)-5-fluoro-1,3-benzothiazol-2-yl]-N-[(cyclopropylcarbamoyl)methyl]-2-(3,3,3-trifluoropropanesulfonyl)acetamide]
101	COCCS(=O)(=O)C(C(=O)NCC(=O)NC1CC1)c1nc2ccc(-c3ccnc(O)c3F)cc2s1 (stereo not drawn) [Example 598, N-(2-(Cyclopropylamino)-2-oxoethyl)-2-(6-(3-fluoro-2-hydroxypyridin-4-yl)benzo[d]thiazol-2-yl)-2-((2-methoxyethyl)sulfonyl)acetamide]
19	Cc1ncc(-c2cc3sc(C(C(=O)NCC(=O)NC4CC4)S(C)(=O)=O)nc3cc2OC(F)F)cn1 (stereo not drawn) [Example 601, N-[(Cyclopropylcarbamoyl)methyl]-2-[5-(difluoromethoxy)-6-(2-methylpyrimidin-5-yl)-1,3-benzothiazol-2-yl]-2-methanesulfonylacetamide]

SMILES	IC50 [nM]
COCCNC(=O)CNC(=O)C(c1nc2ccc(-c3ccc4c(c3)CN(C3CC3)C4=O)cc2s1)S(=O)(=O)c1ccc(F)cc1 (stereo not drawn) [Example 595, 2-(6-(2-Cyclopropyl-1-oxoisoindolin-5-yl)benzo[d]thiazol-2-yl)-2-((4-fluorophenyl)sulfonyl)-N-(2-((2-methoxyethyl)amino)-2-oxoethyl)]	24
